Measured values reported in patent publication US9457033B2, “Steroid alkaloids and uses thereof as antimicrobial agents against electron transport-deficient microbes and as potentiators for antimicrobial agents against pathogenic bacteria” (priority 2011, dated 2016).
In brackets after ≈: the same amount, converted by molar mass.

Key:
[1] = test system: protein, DNA, RNA and cell wall peptidoglycan biosynthesis in ATCC 29213; experiment: Macromolecular biosynthesis assay, incorporation of radiolabeled precursors; type: cell-based, Staphylococcus aureus; settings: control antibiotics at approximately 4×MIC; FIG. 3A
S. aureus ATCC 29213 [2] = experiment: MICs of control antibiotics for macromolecular biosynthesis assays; type: cell-based; settings: Staphylococcus aureus, ATCC29213; ATCC 29213; data not shown; read-out: MIC
[3] = test system: S. aureus SCVs (NewbouldΔhemB, CF07-S and CF1D-S); experiment: MIC, microdilution in BHI 48 h, summary for SCVs; type: cell-based, Staphylococcus aureus; settings: all SCVs of Table 1
S. aureus ATCC 29213 [4] = experiment: MIC, microdilution in BHI 48 h (Examples 1, 3); type: cell-based, Staphylococcus aureus
[5] = test system: S. aureus Newbould (normal strain); experiment: MIC, microdilution in BHI 48 h; type: cell-based, Staphylococcus aureus; settings: Newbould, normal strain
S. aureus SCV CF07-S = experiment: MIC, microdilution in BHI 48 h (Examples 1, 3); type: cell-based, Staphylococcus aureus
[6] = test system: S. aureus SCV NewbouldΔhemB; experiment: MIC, microdilution in BHI 48 h; type: cell-based, Staphylococcus aureus; settings: NewbouldΔhemB, SCV
[7] = test system: S. aureus CF07-L (normal strain); experiment: MIC, microdilution in BHI 48 h (Examples 1, 3); type: cell-based, Staphylococcus aureus
[8] = test system: S. aureus CF1A-L (normal strain); experiment: MIC, microdilution in BHI 48 h; type: cell-based, Staphylococcus aureus; settings: CF1A-L, normal strain
S. aureus SCV CF1D-S = experiment: MIC, microdilution in BHI 48 h; type: cell-based, Staphylococcus aureus; settings: CF1D-S, SCV

Row | SMILES | incorporation of radiolabeled precursors into the targeted macromolecules [1] | MIC (S. aureus ATCC 29213 [2]) | MIC against all SCVs [3] | MIC (S. aureus ATCC 29213 [4]; ATCC 29213 + HQNO at 20 μg/ml) | MIC (S. aureus ATCC 29213 [4]; ATCC 29213, without HQNO) | MIC (S. aureus ATCC 29213 [4]; ATCC 29213 in BHI) | MIC (S. aureus ATCC 29213 [4]; ATCC 29213 in MHBCA) | MIC [5] | MIC (S. aureus SCV CF07-S; CF07-S + HQNO at 20 μg/ml) | MIC (S. aureus SCV CF07-S; CF07-S, SCV) | MIC (S. aureus SCV CF07-S; CF07-S, without HQNO) | MIC [6] | MIC ([7]; CF07-L + HQNO at 20 μg/ml) | MIC ([7]; CF07-L, normal strain) | MIC ([7]; CF07-L, without HQNO) | MIC [8] | MIC (S. aureus SCV CF1D-S)
1 | O=C(N[C@H](CO)[C@H](O)c1ccc([N+](=O)[O-])cc1)C(Cl)Cl [chloramphenicol] | preferentially inhibited | 8 to 16 µg/mL (≈ 24.8 to 49.5 µM) |  |  |  |  |  |  |  |  |  |  |  |  |  |  | 
2 | C[C@H]1CC[C@]2(NC1)O[C@H]1C[C@H]3[C@@H]4CC[C@H]5C[C@@H](O[C@@H]6O[C@H](CO)[C@H](O[C@@H]7O[C@H](CO)[C@@H](O)[C@H](O[C@@H]8OC[C@@H](O)[C@H](O)[C@H]8O)[C@H]7O[C@@H]7O[C@H](CO)[C@@H](O)[C@H](O)[C@H]7O)[C@H](O)[C@H]6O)CC[C@]5(C)[C@H]4CC[C@]3(C)[C@H]1[C@@H]2C [Tomatine, tomatine] |  |  | no MIC was observed | >16 µg/mL | >16 µg/mL | >16 µg/mL | >16 µg/mL | >16 µg/mL | >16 µg/mL | >16 µg/mL | >16 µg/mL | >16 µg/mL | >16 µg/mL | >16 µg/mL | >16 µg/mL | >16 µg/mL | >16 µg/mL
